From patent US8791267B2, “Biaryl PDE4 inhibitors for treating inflammatory, cardiovascular and CNS disorders” (Decode Genetics EHF, priority 2007, dated 2014)
Counter-ions that a name gives are not always drawn. Like-named read-outs stand apart in the source and are kept apart here.

Experiments:
PDE4B = PDE4B (Homo sapiens, UniProt Q07343); assay: In-vitro assay for PDE4 enzymes, real-time enzyme-coupled spectrophotometric assay, PDE4B Activity (Table 10); format: biochemical
PDE4 = PDE4 (Homo sapiens, UniProt Q08499); assay: In-vitro assay for PDE4 enzymes, real-time enzyme-coupled spectrophotometric assay (Table 9); format: biochemical
PDE4, sequence (Q08499 whole entry): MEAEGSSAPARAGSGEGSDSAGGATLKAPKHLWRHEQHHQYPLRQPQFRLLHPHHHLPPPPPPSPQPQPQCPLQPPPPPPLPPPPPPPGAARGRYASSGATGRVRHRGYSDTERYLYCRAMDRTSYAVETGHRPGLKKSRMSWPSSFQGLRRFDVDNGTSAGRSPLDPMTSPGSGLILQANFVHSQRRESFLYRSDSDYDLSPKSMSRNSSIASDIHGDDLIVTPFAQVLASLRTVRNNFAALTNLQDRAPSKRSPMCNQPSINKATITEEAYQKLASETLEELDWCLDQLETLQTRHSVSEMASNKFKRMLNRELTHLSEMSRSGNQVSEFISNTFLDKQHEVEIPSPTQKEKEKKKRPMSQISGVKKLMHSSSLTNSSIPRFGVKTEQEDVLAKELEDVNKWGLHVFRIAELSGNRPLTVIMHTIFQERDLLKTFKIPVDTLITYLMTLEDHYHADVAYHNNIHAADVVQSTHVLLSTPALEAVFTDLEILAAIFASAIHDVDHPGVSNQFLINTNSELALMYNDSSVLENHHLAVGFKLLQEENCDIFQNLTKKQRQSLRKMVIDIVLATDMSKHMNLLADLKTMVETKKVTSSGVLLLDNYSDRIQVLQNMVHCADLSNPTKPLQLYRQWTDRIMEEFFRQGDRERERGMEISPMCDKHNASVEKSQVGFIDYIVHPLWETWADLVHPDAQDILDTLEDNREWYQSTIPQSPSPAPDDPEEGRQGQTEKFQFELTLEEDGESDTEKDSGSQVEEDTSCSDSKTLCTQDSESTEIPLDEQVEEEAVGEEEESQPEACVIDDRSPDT

[1] = human PDE4B (hPDE4B), enzyme-coupled spectrophotometric assay, read-out: PDE4B Activity, hPDE4B
[2] = human PDE4D, activity class, Table 9, read-out: hPDE4D

PDE4B, sequence (Q07343 whole entry): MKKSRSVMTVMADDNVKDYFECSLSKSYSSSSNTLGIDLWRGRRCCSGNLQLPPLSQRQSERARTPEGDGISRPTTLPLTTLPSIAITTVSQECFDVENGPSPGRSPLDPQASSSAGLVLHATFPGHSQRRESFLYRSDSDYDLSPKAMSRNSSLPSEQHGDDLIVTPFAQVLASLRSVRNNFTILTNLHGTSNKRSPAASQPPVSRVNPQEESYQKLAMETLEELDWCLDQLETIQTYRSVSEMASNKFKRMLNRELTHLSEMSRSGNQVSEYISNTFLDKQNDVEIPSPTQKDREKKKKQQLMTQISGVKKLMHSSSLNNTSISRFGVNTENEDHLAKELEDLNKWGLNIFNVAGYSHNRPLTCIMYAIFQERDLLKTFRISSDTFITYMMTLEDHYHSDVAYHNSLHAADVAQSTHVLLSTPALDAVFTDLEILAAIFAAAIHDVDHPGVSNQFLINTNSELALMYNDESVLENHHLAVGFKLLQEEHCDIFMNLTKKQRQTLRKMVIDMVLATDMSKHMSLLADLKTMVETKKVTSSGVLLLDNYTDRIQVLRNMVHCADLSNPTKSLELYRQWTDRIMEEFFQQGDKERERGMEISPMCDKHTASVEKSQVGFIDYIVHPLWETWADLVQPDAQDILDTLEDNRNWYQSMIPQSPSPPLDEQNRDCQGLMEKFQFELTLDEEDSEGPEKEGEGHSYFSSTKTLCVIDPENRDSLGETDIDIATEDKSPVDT

COc1ccc(Cc2ccc(N3CCCC3)nc2)c(F)c1-c1cccc(Cl)c1 [P-582, 5-(3′-Chloro-2-fluoro-6-methoxy-biphenyl-3-ylmethyl)-2-pyrrolidin-1-yl-pyridine]
IC50 (PDE4B; [1]): < 5 µM | IC50 (PDE4; [2]): < 5 µM

Nc1ccc(Cc2ccc(OC3COC3)c(-c3cccc(Cl)c3)c2)cc1 [P-562, 4-[3′-Chloro-6-(oxetan-3-yloxy)-biphenyl-3-ylmethyl]-phenylamine]
IC50 (PDE4B; [1]): < 5 µM | IC50 (PDE4; [2]): < 5 µM

COc1ccc(Cc2ccc(Cl)nc2)c(F)c1-c1cccc([N+](=O)[O-])c1 [P-152]
IC50 (PDE4B; [1]): < 5 µM | IC50 (PDE4; [2]): < 5 µM

COc1ccc(Cc2ccc(-n3cncn3)nc2)c(F)c1-c1cccc(Cl)c1 [P-412]
IC50 (PDE4B; [1]): < 5 µM | IC50 (PDE4; [2]): < 5 µM

COc1ccc(CN2CCNC(=O)C2)c(F)c1-c1cccc(Cl)c1 [P-623]
IC50 (PDE4B; [1]): 5 to 20 µM | IC50 (PDE4; [2]): < 5 µM

CCNC(=O)NCc1ccc(Cc2ccc(OC)c(-c3cccc(Cl)c3)c2F)cn1 [P-372, 1-[5-(3′-Chloro-2-fluoro-6-methoxy-biphenyl-3-ylmethyl)-pyridin-2-ylmethyl]-3-ethyl-urea]
IC50 (PDE4B; [1]): < 5 µM | IC50 (PDE4; [2]): < 5 µM

COc1ccc(Oc2ccc(N)nc2)c(F)c1-c1cccc(C#N)c1 [P-439, 5-(3′-Cyano-2-fluoro-6-methoxy-biphenyl-3-yloxy)-pyridin-2-yl-ammonium chloride]
IC50 (PDE4B; [1]): < 5 µM | IC50 (PDE4; [2]): < 5 µM

COc1ccc(Oc2ccc(F)cc2)cc1-c1cccc([N+](=O)[O-])c1 [P-193, 5-(4-Fluoro-phenoxy)-2-methoxy-3′-nitrobiphenyl]
IC50 (PDE4B; [1]): < 5 µM | IC50 (PDE4; [2]): < 5 µM

COc1ccc(Cc2ccc3c(c2)OCO3)c(F)c1-c1cccc(Cl)c1 [P-242]
IC50 (PDE4B; [1]): < 5 µM | IC50 (PDE4; [2]): < 5 µM

COc1ccc(Cc2cccc(O)c2)c(F)c1-c1cccc(Cl)c1 [P-217]
IC50 (PDE4B; [1]): < 5 µM | IC50 (PDE4; [2]): < 5 µM

CCNC(=O)OCc1ccc(Cc2ccc(OC)c(-c3cccc(Cl)c3)c2)cn1 [P-570, Ethyl-carbamic acid 5-(3′-chloro-6-methoxy-biphenyl-3-ylmethyl)-pyridin-2-ylmethyl ester hydrochloride]
IC50 (PDE4B; [1]): < 5 µM | IC50 (PDE4; [2]): < 5 µM

COc1ccc(Cc2ccnc(N3CCN(C(N)=O)CC3)c2)c(F)c1-c1cccc(Cl)c1 [P-518, 4-[4-(3′-Chloro-2-fluoro-6-methoxy-biphenyl-3-ylmethyl)-pyridin-2-yl]-piperazine-1-carboxylic acid amide]
IC50 (PDE4B; [1]): < 5 µM | IC50 (PDE4; [2]): < 5 µM

COc1ccc(Cc2ccc(-n3cccn3)cc2)c(O)c1-c1cccc([N+](=O)[O-])c1 [P-173, 6-Methoxy-3′-nitro-3-(4-pyrazol-1-yl-benzyl)-biphenyl-2-ol]
IC50 (PDE4B; [1]): < 5 µM | IC50 (PDE4; [2]): < 5 µM

COc1ccc(Cc2ccc(F)cc2O)cc1-c1cccc([N+](=O)[O-])c1 [P-119, 5-Fluoro-2-(6-methoxy-3′-nitro-biphenyl-3-ylmethyl)-phenol]
IC50 (PDE4B; [1]): < 5 µM | IC50 (PDE4; [2]): < 5 µM

COc1ccc(CN2C(=O)CC[C@H]2CN)cc1-c1cccc([N+](=O)[O-])c1 [P-155, (S)-5-Aminomethyl-1-(6-methoxy-3′-nitro-biphenyl-3-ylmethyl)-pyrrolidin-2-one]
IC50 (PDE4B; [1]): 5 to 20 µM | IC50 (PDE4; [2]): 20 to 40 µM

CNc1ccc(Cc2ccc(OC)c(-c3cccc(C(C)=O)c3)c2F)cn1 [P-336]
IC50 (PDE4B; [1]): < 5 µM | IC50 (PDE4; [2]): < 5 µM

O=C1CCCN1Cc1ccc(O)c(-c2cccc([N+](=O)[O-])c2)c1 [P-503, 1-(6-Hydroxy-3′-nitro-biphenyl-3-ylmethyl)-pyrrolidin-2-one]
IC50 (PDE4B; [1]): 5 to 20 µM | IC50 (PDE4; [2]): 5 to 20 µM

COc1ccc(Cc2ccc(N3CCNC3=O)nc2)c(F)c1-c1cccc(Cl)c1 [P-388, 1-[5-(3′-Chloro-2-fluoro-6-methoxy-biphenyl-3-ylmethyl)-pyridin-2-yl]-imidazolidin-2-one]
IC50 (PDE4B; [1]): < 5 µM | IC50 (PDE4; [2]): < 5 µM

CCOC(=O)Nc1ccc(Cc2ccc(OC)c(-c3cccc(Cl)c3)c2F)cn1 [P-357]
IC50 (PDE4B; [1]): < 5 µM | IC50 (PDE4; [2]): < 5 µM

COc1ccc(Cn2cncc2CO)cc1-c1cccc([N+](=O)[O-])c1 [P-153, [3-(6-Methoxy-3′-nitro-biphenyl-3-ylmethyl)-3H-imidazol-4-yl]-methanol]
IC50 (PDE4B; [1]): 5 to 20 µM | IC50 (PDE4; [2]): < 5 µM

COc1ccc(C(C)(O)c2ccc(NC(C)=O)cc2)c(F)c1-c1cccc(Cl)c1 (racemic) [P-530, N-{4-[1-(3′-Chloro-2-fluoro-6-methoxy-biphenyl-3-yl)-1-hydroxy-ethyl]-phenyl}-acetamide]
IC50 (PDE4B; [1]): 21 to 40 µM | IC50 (PDE4; [2]): < 5 µM

COc1ccc(CN2C[C@@H](O)CC2=O)cc1-c1cccc([N+](=O)[O-])c1 [P-248, (S)-4-Hydroxy-1-(6-methoxy-3′-nitro-biphenyl-3-ylmethyl)-pyrrolidin-2-one]
IC50 (PDE4B; [1]): < 5 µM | IC50 (PDE4; [2]): < 5 µM

COc1ccc(CN2C(=O)CC[C@@H]2CN)cc1-c1cccc([N+](=O)[O-])c1 [P-156, (R)-5-Aminomethyl-1-(6-methoxy-3′-nitro-biphenyl-3-ylmethyl)-pyrrolidin-2-one]
IC50 (PDE4B; [1]): < 5 µM | IC50 (PDE4; [2]): < 5 µM

COc1ccc(Sc2ccc(N)cc2)cc1-c1cccc(Cl)c1 [P-447, 4-(3′-Chloro-6-methoxy-biphenyl-3-ylsulfanyl)-phenylaammonium chloride]
IC50 (PDE4B; [1]): < 5 µM | IC50 (PDE4; [2]): < 5 µM

COc1ccc(Cc2cnc(N3CC(O)C3)nc2)c(F)c1-c1cccc(Cl)c1 [P-393, 1-[5-(3′-Chloro-2-fluoro-6-methoxy-biphenyl-3-ylmethyl)-pyrimidin-2-yl]-azetidin-3-ol]
IC50 (PDE4B; [1]): < 5 µM | IC50 (PDE4; [2]): < 5 µM

COc1ccc(Cc2ccc(N3CCC3)nc2)cc1-c1cccc(Cl)c1 [P-568, 2-azetidin-1-yl-5-(3′-chloro-6-methoxy-biphenyl-3-ylmethyl)-pyridine]
IC50 (PDE4B; [1]): < 5 µM | IC50 (PDE4; [2]): < 5 µM

NC(=O)Nc1ccc(Cc2ccc(OC3COC3)c(-c3cccc(Cl)c3)c2)cc1 [P-555, {4-[3′-Chloro-6-(oxetan-3-yloxy)-biphenyl-3-ylmethyl]-phenyl}-urea]
IC50 (PDE4B; [1]): < 5 µM | IC50 (PDE4; [2]): < 5 µM

COc1ccc(Cc2cnc(NC(=O)NCCCl)nc2)c(F)c1-c1cccc(C(C)=O)c1 [P-366, 1-[5-(3′-Acetyl-2-fluoro-6-methoxy-biphenyl-3-ylmethyl)-pyrimidin-2-yl]-3-(2-chloro-ethyl)-urea]
IC50 (PDE4B): < 5 µM | IC50 (PDE4): < 5 µM

COc1ccc(CN2CCNC2=O)cc1-c1cccc([N+](=O)[O-])c1 [P-034, 1-(6-Methoxy-3′-nitro-biphenyl-3-ylmethyl)-imidazolidin-2-one]
IC50 (PDE4B; [1]): < 5 µM | IC50 (PDE4; [2]): < 5 µM

COc1ccc(Cc2ccc(OCCN(C)C)cc2)cc1-c1cccc([N+](=O)[O-])c1 [P-164]
IC50 (PDE4B; [1]): 5 to 20 µM | IC50 (PDE4; [2]): < 5 µM

[2H]C([2H])([2H])Oc1ccc(Cc2ccc(NC(N)=O)cc2)cc1-c1cccc(Cl)c1 [P-516]
IC50 (PDE4B; [1]): < 5 µM | IC50 (PDE4; [2]): < 5 µM

COc1ccc(Cc2ccc(OC)c(-c3cccc(Cl)c3)c2F)cn1 [P-225]
IC50 (PDE4B; [1]): < 5 µM | IC50 (PDE4; [2]): < 5 µM

[2H]C([2H])(c1ccc(NC(N)=O)cc1)c1ccc(OC)c(-c2cccc(Cl)c2)c1 [P-547, {4-[Bisduetero-(3′-chloro-6-methoxy-biphenyl-3-yl)-methyl]-phenyl}-urea]
IC50 (PDE4B; [1]): < 5 µM | IC50 (PDE4; [2]): < 5 µM

COc1ccc(Cc2ccc(OC[C@H]3CCCN3)nc2)c(F)c1-c1cccc(Cl)c1 [P-523, 5-(3′-Chloro-2-fluoro-6-methoxy-biphenyl-3-ylmethyl)-2-((R)-1-pyrrolidin-2-ylmethoxy)-pyridine]
IC50 (PDE4B; [1]): < 5 µM | IC50 (PDE4; [2]): < 5 µM

CC(C)(O)c1ccc(Cc2ccc(OC(F)F)c(-c3cccc(Cl)c3)c2)cn1 [P-610, 2-[5-(3′-Chloro-6-difluoromethoxy-biphenyl-3-ylmethyl)-pyridin-2-yl]-propan-2-ol hydrochloride]
IC50 (PDE4B; [1]): < 5 µM | IC50 (PDE4; [2]): < 5 µM

COc1ccc(Cc2ccc(C(C)(C)O)nc2)cc1-c1cccc(Cl)c1 [P-605, 2-[5-(3′-chloro-6-methoxy-biphenyl-3-ylmethyl)-pyridin-2-yl]-propan-2-ol HCl salt]
IC50 (PDE4B; [1]): < 5 µM | IC50 (PDE4; [2]): < 5 µM

COc1ccc(Cc2ccc(CN3CCOC3=O)nc2)c(F)c1-c1cccc(Cl)c1 [P-465, 3-[5-(3′-Chloro-2-fluoro-6-methoxy-biphenyl-3-ylmethyl)-pyridin-2-ylmethyl]-oxazolidin-2-one hydrochloride]
IC50 (PDE4B; [1]): < 5 µM | IC50 (PDE4; [2]): < 5 µM

COC(=O)c1cccc(-c2cc(Cn3cncn3)ccc2OC)c1 [P-022, 2′-Methoxy-5′-[1,2,4]triazol-1-ylmethyl-biphenyl-3-carboxylic acid methyl ester]
IC50 (PDE4B; [1]): 5 to 20 µM | IC50 (PDE4; [2]): < 5 µM

COc1ccc(Cc2ccnc(N3CCNCC3)c2)c(F)c1-c1cccc(Cl)c1 [P-515, 1-[4-(3′-Chloro-2-fluoro-6-methoxy-biphenyl-3-ylmethyl)-pyridin-2-yl]-piperazine]
IC50 (PDE4B; [1]): < 5 µM | IC50 (PDE4; [2]): < 5 µM

CCNC(=O)Nc1ccc(Cc2ccc(OC)c(-c3cccc(Cl)c3)n2)cn1 [P-386, 1-{5-[6-(3-chloro-phenyl)-5-methoxy-pyridin-2-ylmethyl]-pyridin-2-yl}-3-ethyl-urea hydrochloride]
IC50 (PDE4B; [1]): < 5 µM | IC50 (PDE4; [2]): < 5 µM

COc1ccc(Cc2ccc(N(C)C)nc2)c(F)c1-c1cccc(Cl)c1 [P-473, [5-(3′-Chloro-2-fluoro-6-methoxy-biphenyl-3-ylmethyl)-pyridin-2-yl]-dimethyl-amine]
IC50 (PDE4B; [1]): < 5 µM | IC50 (PDE4; [2]): < 5 µM

COc1ccc(Cc2ccc(N3CCC3C(N)=O)nc2)c(F)c1-c1cccc(Cl)c1 (stereo not shown) [P-571, 1-[5-(3′-chloro-2-fluoro-6-methoxy-biphenyl-3-ylmethyl)-pyridin-2-yl]-azetidine-2-carboxylic acid amide]
IC50 (PDE4B; [1]): < 5 µM | IC50 (PDE4; [2]): < 5 µM

COc1ccc([C@](C)(O)c2ccc(NC(C)=O)cc2)c(F)c1-c1cccc(Cl)c1 (single isomer, unassigned) [P-560]
IC50 (PDE4B; [1]): 5 to 20 µM | IC50 (PDE4; [2]): 5 to 20 µM

COc1ccc(CN2CCCC2=O)cc1-c1cccc(C(C)=O)c1 [P-172, 1-(3′-Acetyl-6-methoxy-biphenyl-3-ylmethyl)-pyrrolidin-2-one]
IC50 (PDE4B; [1]): < 5 µM | IC50 (PDE4; [2]): < 5 µM
